Data on four compounds can be found in patent US10106538B2, “Inhibitors of protein kinases” (PRINCETON DRUG DISCOVERY INC, priority 2015, dated 2018).

Molecules are shown by their SMILES. Like-named read-outs stand apart in the source and are kept apart here. A value given as a limit tells only on which side of the number the result lay.

One test addresses T1, PDGFRα(D842V) (Homo sapiens, UniProt P16234, D842V).
T1 construct: purchased Carna Biosciences
Description: Off-chip Mobility Shift Assay (MSA) kinase inhibition. The class given is biochemical. As to conditions: inhibitor concentration 0.01 μM. As to the method:
(§1) Off-chip Mobility Shift Assay (MSA) by Cama Biosciences, Inc (Natick, Mass.) a used for measuring the kinase activity and inhibition. • 1) The 5 μL of x4 compound solution, 5 μL of x4 Substrate/ATP/Metal solution, and 10 μL of x2 kinase solution were prepared with assay buffer (20 mM HEPES, 0.01% Triton X100, 2 mM DTT, pH 7.5) and mixed and incubated in a well of polypropylene 384 well microplate for 1 or 5 hour(s)* at room temperature. (*; depending on kinase) • 2) 70 μL of Termination Buffer (QuickScout Screening Assist A; Cama Biosciences) was added to the welt • 3) The reaction mixture was applied to LabChip system (Perkin Elmer), and the product and substrate peptide peaks were separated and quantitated. • 4) The kinase reaction was evaluated by the product ratio calculated from peak heights of product (P) and substrate (S) peptides (P/(P+S)). • 5) The reaction conditions were followed according to assay protocols of Ca n Biosciences, Inc (BMA 3F, 1-5-5 Minatojima-Minamimachi, Chuo-ku, Kobe 650-0047, Japan; www.carnabio.com). • 6 Data analysis: The readout value of reaction control (complete reaction mixture) was set as a 0% inhibition, and the readout value of background (Enzyme (−)) was set as a 100% inhibition, then the percent inhibition of each test solution was calculated, […]

Another test addresses T2, PDGFRα(T674I) (Homo sapiens, UniProt P16234, T674I).
T2 construct: purchased Carna Biosciences
Described as above. Format: biochemical. As to conditions: inhibitor concentration 0.01 μM. As to the method:
as §1

In another test the target is T3, PDGFRα(V561D) (Homo sapiens, UniProt P16234, V561D).
T3 construct: purchased Carna Biosciences
Described as above. As to conditions: inhibitor concentration 0.01 μM. Format: biochemical. How it is done: as §1

For a further test, the target named is T4, BRAF (Homo sapiens, UniProt P15056).
T4 construct: purchased Carna Biosciences
The description is as above. The following applies: inhibitor concentration 0.01 μM. The class given is biochemical. As to the method: (§2) Off-chip Mobility Shift Assay (MSA) by Cama Biosciences, Inc (Natick, Mass.) a used for measuring the kinase activity and inhibition. • 1) The 5 μL of x4 compound solution, 5 μL of x4 Substrate/ATP/Metal solution, and 10 μL of x2 kinase solution were prepared with assay buffer (20 mM HEPES, 0.01% Triton X100, 2 mM DTT, pH 7.5) and mixed and incubated in a well of polypropylene 384 well microplate for 1 or 5 hour(s)* at room temperature.

The next test addresses T5, BRAF(V600E) (Homo sapiens, UniProt P15056, V600E).
T5 construct: purchased Carna Biosciences
The test is described as above. As to conditions: inhibitor concentration 0.01 μM. The class given is biochemical. As to the method: as §2

A further test concerns the target T6, BRK (Homo sapiens, UniProt Q13882).
T6 construct: purchased Carna Biosciences
The description is as above. As to conditions: inhibitor concentration 0.01 μM. The class given is biochemical. How it is done:
as §2

The target in a further test is T7, FGR (Homo sapiens, UniProt P09769).
T7 construct: purchased Carna Biosciences
The test is described as above. Format: biochemical. As to conditions: inhibitor concentration 0.01 μM. As to the method:
as §2

The target in a further test is T8, JAK1 (Homo sapiens, UniProt P23458).
T8 construct: purchased Carna Biosciences
Described as above. Format: biochemical. The following applies: inhibitor concentration 0.01 μM. As to the method: as §2

The target of another test is T9, JAK2 (Homo sapiens, UniProt O60674).
T9 construct: purchased Carna Biosciences
The description is as above. Format: biochemical. As to conditions: inhibitor concentration 0.01 μM. How it is done: as §2

Another test has as its target T10, JAK3 (Homo sapiens, UniProt P52333).
T10 construct: purchased Carna Biosciences
T10 sequence (P52333 1-1124): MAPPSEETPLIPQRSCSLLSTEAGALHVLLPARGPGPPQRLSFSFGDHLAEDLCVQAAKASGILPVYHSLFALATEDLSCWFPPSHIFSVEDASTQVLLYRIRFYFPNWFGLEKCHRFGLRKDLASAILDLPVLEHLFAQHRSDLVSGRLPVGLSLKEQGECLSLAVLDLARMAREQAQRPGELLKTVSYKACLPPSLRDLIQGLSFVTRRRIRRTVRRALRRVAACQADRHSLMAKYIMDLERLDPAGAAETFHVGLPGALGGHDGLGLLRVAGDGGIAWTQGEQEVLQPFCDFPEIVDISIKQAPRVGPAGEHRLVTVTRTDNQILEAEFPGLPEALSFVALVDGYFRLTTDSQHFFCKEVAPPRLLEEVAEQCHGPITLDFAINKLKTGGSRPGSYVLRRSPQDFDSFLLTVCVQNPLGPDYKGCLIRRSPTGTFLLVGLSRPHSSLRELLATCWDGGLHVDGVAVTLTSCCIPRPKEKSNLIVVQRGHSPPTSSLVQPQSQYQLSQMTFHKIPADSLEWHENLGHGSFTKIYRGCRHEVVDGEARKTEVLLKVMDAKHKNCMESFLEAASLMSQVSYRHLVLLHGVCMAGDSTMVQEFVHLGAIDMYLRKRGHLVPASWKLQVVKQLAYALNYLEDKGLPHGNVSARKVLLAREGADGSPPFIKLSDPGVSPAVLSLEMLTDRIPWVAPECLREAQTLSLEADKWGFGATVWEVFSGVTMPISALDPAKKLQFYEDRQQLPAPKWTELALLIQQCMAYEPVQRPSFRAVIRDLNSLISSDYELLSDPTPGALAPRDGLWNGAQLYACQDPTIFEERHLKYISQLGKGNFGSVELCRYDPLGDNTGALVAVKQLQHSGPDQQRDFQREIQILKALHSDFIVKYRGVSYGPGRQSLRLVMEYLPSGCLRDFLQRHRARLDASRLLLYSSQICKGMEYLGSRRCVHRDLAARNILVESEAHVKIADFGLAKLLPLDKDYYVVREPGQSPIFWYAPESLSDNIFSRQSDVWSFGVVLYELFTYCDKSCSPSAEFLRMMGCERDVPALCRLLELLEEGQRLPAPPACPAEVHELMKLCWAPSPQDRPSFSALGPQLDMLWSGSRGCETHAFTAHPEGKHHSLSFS
The description is as above. The class given is biochemical. As to conditions: inhibitor concentration 0.01 μM. As to the method:
as §2

The target of the next test is T11, KIT (Homo sapiens, UniProt P10721).
T11 construct: purchased Carna Biosciences
Described as above. Format: biochemical. As to conditions: inhibitor concentration 0.01 μM. As to the method: as §2

A further test has as its target T12, KIT(D816V) (Homo sapiens, UniProt P10721, D816V).
T12 construct: purchased Carna Biosciences
The description is as above. The class given is biochemical. The following applies: inhibitor concentration 0.01 μM. How it is done:
as §2

Another test has as its target T13, KIT(T670I) (Homo sapiens, UniProt P10721, T670I).
T13 construct: purchased Carna Biosciences
The description is as above. The following applies: inhibitor concentration 0.01 μM. The class given is biochemical. How it is done: as §2

The target of a further test is T14, KIT(V560G) (Homo sapiens, UniProt P10721, V560G).
T14 construct: purchased Carna Biosciences
The test is described as above. The class given is biochemical. The following applies: inhibitor concentration 0.01 μM. How it is done: as §2

The target of another test is T15, LCK (Homo sapiens, UniProt P06239).
T15 construct: purchased Carna Biosciences
The description is as above. As to conditions: inhibitor concentration 0.01 μM. Format: biochemical. As to the method:
as §2

The next test deals with T16, PDGFRα (Homo sapiens, UniProt P16234).
T16 construct: purchased Carna Biosciences
The test is described as above. As to conditions: inhibitor concentration 0.01 μM. Format: biochemical. As to the method:
as §2

A further test concerns the target T17, PDGFRβ (Homo sapiens, UniProt P09619).
T17 construct: purchased Carna Biosciences
The test is described as above. Format: biochemical. As to conditions: inhibitor concentration 0.01 μM. As to the method:
as §2

A further test concerns the target T18, RAF1 (Homo sapiens, UniProt P04049).
T18 construct: purchased Carna Biosciences
The test is described as above. Format: biochemical. As to conditions: inhibitor concentration 0.01 μM. How it is done: as §2

The target in another test is T19, SRC (Homo sapiens, UniProt P12931).
T19 construct: purchased Carna Biosciences
The test is described as above. Format: biochemical. The following applies: inhibitor concentration 0.01 μM. How it is done: as §2

The target of another test is T20, SRM (Homo sapiens, UniProt Q9H3Y6).
T20 construct: purchased Carna Biosciences
Described as above. Format: biochemical. As to conditions: inhibitor concentration 0.01 μM. As to the method:
as §2

The subject of test [1] is breast cancer cell line T-47D. The experiment in a line: Cell growth assay with breast cancer cell line T-47D. Format: cell-based. As to conditions: T-47D cells, PrestoBlue Cell Viability reagent, read-out: IC50 inhibition of cell growth. How it is done: […] of the complete medium was then gently dispersed over the surface of the cell layer for several times. The cell concentration was adjusted to 1×10^4 cells/mL with the complete medium. A 100 μL aliquot of the cell suspension was added to the well of a 96-well plate, and the plate was incubated overnight at 37° C. under 5% CO2 with saturated humidity. On the next day, the medium in each well was aspirated and replaced with a 100 μL aliquot of pre-warmed complete medium at 37° C. in the presence or absence of the test compounds at various concentrations from 0-100 μM. The test compounds were dissolved in DMSO, and the final DMSO concentration in the cell culture was no more than 1%. The plate was incubated for 72 hours at 37° C. under 5% CO2 with saturated humidity. At end of the cell culture a 10 μL aliquot of PrestoBlue® Cell Viability reagent (ThermoFisher Scientific) was added into the well and the plate was incubated at 37° C. for 30 min. The absorption at 570 and 600 nm were measured with a SpectraMax Microplate reader (Molecular Devices), The absorbance at […] was normalized to that at 600 nm.

T14 sequence (P10721 26-976 V560G): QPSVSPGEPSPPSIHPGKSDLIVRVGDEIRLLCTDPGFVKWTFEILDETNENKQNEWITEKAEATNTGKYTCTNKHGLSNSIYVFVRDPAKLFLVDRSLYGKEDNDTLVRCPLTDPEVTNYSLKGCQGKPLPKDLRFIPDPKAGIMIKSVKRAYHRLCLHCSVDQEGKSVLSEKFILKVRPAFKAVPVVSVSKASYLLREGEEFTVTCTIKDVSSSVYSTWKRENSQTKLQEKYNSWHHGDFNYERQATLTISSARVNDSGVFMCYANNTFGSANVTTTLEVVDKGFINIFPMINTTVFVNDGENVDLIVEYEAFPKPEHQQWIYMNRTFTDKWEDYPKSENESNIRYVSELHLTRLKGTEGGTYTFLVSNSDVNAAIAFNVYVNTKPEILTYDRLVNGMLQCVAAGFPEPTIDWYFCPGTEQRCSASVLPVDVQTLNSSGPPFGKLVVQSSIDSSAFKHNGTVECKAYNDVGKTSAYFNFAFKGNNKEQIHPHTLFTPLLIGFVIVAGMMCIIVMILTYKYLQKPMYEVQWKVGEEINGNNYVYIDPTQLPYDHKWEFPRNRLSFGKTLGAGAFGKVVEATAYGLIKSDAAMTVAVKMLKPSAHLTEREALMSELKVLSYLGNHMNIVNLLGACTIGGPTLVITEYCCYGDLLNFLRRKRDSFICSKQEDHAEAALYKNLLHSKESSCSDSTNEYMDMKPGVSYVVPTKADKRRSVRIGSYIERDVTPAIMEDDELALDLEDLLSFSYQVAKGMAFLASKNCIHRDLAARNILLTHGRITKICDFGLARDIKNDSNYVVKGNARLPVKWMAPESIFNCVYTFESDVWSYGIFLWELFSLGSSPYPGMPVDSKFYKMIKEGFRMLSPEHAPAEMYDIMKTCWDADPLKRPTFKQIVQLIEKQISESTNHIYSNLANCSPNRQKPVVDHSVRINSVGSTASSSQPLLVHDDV
T19 sequence (P12931 whole entry): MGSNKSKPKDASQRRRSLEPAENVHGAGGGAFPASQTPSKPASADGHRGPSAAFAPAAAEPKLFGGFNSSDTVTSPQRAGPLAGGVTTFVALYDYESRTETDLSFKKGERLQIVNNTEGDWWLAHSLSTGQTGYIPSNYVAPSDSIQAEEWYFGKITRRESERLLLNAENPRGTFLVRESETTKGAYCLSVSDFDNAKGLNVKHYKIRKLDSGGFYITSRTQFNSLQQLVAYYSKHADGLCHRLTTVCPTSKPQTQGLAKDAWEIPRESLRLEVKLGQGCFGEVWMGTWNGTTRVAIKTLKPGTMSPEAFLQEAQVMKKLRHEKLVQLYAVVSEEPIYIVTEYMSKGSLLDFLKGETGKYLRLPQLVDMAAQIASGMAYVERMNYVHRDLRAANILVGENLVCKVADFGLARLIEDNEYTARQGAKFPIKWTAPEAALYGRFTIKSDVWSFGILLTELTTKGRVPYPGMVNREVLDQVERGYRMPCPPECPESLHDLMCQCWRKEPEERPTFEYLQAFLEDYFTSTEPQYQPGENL
T12 sequence (P10721 26-976 D816V): as the sequence (P10721 26-976 V560G) above, with G535V, D791V counted along it
T13 sequence (P10721 26-976 T670I): as the sequence (P10721 26-976 V560G) above, with G535V, T645I counted along it
T11 sequence (P10721 26-976): as the sequence (P10721 26-976 V560G) above, with G535V counted along it
T6 sequence (Q13882 whole entry): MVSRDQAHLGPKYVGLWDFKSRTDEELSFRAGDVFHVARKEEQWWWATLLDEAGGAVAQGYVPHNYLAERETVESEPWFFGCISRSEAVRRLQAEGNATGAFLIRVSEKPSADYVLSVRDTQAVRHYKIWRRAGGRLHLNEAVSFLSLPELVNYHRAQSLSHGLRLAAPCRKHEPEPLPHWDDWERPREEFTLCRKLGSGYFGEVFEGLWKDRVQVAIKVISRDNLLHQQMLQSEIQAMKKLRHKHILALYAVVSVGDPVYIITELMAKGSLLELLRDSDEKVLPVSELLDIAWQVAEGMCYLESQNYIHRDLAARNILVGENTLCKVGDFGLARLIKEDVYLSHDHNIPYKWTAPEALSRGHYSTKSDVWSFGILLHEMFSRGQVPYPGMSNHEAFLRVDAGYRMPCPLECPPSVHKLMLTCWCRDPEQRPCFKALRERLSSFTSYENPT
T7 sequence (P09769 whole entry): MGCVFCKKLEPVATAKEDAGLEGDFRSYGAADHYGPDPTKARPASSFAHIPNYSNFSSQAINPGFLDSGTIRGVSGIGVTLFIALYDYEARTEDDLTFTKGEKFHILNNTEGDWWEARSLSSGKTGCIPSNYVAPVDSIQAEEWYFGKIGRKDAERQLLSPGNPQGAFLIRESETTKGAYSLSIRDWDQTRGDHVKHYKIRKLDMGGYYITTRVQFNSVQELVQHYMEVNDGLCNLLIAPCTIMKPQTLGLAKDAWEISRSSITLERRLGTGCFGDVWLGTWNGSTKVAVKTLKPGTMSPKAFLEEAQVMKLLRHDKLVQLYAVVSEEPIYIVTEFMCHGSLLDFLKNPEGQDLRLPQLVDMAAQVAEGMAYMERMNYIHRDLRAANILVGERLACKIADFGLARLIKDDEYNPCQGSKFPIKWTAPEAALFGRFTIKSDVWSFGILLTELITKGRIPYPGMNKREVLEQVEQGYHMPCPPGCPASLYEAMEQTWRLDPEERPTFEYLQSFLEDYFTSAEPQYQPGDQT
T17 sequence (P09619 33-1106): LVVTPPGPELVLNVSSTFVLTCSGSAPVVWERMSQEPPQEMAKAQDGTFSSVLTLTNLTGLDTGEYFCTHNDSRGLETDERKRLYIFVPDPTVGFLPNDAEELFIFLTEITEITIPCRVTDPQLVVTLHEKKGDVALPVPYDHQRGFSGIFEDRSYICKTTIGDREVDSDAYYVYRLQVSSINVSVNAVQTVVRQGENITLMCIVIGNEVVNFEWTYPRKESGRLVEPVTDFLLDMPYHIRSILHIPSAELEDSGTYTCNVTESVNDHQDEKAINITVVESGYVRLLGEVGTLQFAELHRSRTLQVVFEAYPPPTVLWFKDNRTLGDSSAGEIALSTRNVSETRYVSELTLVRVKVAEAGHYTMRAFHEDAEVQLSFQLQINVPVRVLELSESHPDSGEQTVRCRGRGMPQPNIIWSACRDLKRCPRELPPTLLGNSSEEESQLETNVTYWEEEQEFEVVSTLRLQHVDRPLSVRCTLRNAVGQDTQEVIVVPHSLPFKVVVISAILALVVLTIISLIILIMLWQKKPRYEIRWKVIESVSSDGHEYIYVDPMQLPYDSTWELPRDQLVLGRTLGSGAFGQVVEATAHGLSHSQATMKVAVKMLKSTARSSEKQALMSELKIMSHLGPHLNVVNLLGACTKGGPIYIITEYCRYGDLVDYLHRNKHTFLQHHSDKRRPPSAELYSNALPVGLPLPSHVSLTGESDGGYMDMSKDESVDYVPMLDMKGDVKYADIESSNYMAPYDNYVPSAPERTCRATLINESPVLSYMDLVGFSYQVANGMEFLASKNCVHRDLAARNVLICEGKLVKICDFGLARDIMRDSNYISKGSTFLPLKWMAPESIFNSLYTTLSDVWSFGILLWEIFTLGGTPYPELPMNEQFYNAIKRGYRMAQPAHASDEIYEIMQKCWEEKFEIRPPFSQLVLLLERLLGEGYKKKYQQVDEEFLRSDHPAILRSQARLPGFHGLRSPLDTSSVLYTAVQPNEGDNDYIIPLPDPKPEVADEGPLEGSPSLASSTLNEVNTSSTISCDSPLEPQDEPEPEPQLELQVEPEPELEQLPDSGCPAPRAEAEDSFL
T16 sequence (P16234 24-1089): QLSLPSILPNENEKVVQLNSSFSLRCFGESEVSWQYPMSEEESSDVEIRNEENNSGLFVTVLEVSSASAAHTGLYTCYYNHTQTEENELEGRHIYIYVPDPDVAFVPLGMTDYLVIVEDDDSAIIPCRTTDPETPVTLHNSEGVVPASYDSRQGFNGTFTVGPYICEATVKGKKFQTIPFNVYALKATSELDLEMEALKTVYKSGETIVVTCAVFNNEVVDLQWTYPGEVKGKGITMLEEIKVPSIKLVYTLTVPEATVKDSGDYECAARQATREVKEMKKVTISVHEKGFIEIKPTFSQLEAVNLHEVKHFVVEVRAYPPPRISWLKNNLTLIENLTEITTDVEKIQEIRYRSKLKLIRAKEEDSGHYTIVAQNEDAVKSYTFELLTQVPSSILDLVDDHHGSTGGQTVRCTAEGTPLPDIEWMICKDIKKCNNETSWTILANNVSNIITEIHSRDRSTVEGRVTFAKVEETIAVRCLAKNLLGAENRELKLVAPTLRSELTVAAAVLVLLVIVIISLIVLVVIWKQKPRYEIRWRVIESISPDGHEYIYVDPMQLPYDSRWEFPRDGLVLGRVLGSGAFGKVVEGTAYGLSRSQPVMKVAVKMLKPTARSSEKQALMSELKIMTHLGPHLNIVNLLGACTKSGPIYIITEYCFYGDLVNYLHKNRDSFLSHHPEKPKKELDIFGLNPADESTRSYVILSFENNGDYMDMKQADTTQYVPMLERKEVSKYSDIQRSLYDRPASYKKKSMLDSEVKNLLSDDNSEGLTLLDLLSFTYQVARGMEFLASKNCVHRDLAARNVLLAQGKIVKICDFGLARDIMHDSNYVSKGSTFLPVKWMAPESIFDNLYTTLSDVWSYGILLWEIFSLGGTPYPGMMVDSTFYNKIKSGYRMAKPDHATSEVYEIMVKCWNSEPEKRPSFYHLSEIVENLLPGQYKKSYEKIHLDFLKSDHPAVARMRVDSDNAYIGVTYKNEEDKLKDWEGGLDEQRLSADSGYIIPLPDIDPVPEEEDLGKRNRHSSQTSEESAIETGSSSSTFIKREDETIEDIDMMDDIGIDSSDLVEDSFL
T2 sequence (P16234 24-1089 T674I): as the sequence (P16234 24-1089) above, with T651I counted along it
T1 sequence (P16234 24-1089 D842V): as the sequence (P16234 24-1089) above, with D819V counted along it
T3 sequence (P16234 24-1089 V561D): as the sequence (P16234 24-1089) above, with V538D counted along it

As for `C/C=C/S(=O)(=O)Nc1ccc(F)c(C(=O)c2c[nH]c3ncc(-c4ccc(Cl)cc4)cc23)c1F` [200-93a], the inhibition at 0.01 µM at PDGFRα(D842V), on PDGFRα(T674I), on PDGFRα(V561D), on BRAF, at BRAF(V600E) and at BRK was over 30% in each case. The inhibition at 0.01 µM on FGR, on JAK1, on JAK2, on JAK3, at KIT and at KIT(D816V) was over 30% each time. The inhibition at 0.01 µM at KIT(T670I) is over 30%; at KIT(V560G) it was over 30%; at LCK, over 30%; on PDGFRα, over 20%; at PDGFRβ it was over 20%; on RAF1, over 30%. Also, the inhibition at 0.01 µM at SRC and at SRM was over 30% throughout. Moreover, the IC50 in [1] (72 hours) was over 20 µM.
For `COCCCS(=O)(=O)Nc1ccc(F)c(C(=O)c2c[nH]c3ncc(-c4ccc(Cl)cc4)cc23)c1F` [200-123, N-[3-[5-(4-chlorophenyl)pyrrolo[2,3-b]pyridine-3-carbonyl]-2,4-difluoro-phenyl]-3-methoxypropane-1-sulfonamide], the inhibition at 0.01 µM at PDGFRα(D842V) is under 20%; on PDGFRα(T674I), under 20%; at PDGFRα(V561D), under 20%; on BRAF, under 20%; at BRAF(V600E) it was over 20%; on BRK, over 20%. The inhibition at 0.01 µM at FGR, on JAK1, at JAK2, at JAK3, on KIT and at KIT(D816V) was under 20% throughout. The inhibition at 0.01 µM is under 20% at KIT(T670I); under 20% on KIT(V560G); over 20% on LCK; under 20% on PDGFRα; under 20% at PDGFRβ; over 20% at RAF1. Moreover, the inhibition at 0.01 µM at SRC was under 20%; on SRM it was over 20%. Besides, in [1] (Homo sapiens, T47D, 72 h), the half-inhibitory concentration (IC50) was under 20 µM.
Take `COCCS(=O)(=O)Nc1ccc(F)c(C(=O)c2c[nH]c3ncc(-c4ccc(Cl)cc4)cc23)c1F` [200-139, N-[3-[5-(4-chlorophenyl)pyrrolo[2,3-b]pyridine-3-carbonyl]-2,4-difluorophenyl]-2-methoxyethanesulfonamide]: the inhibition at 0.01 µM at PDGFRα(D842V) was under 20%; on PDGFRα(T674I) it was under 20%; on PDGFRα(V561D), under 20%; on BRAF it was under 20%; at BRAF(V600E), under 20%; at BRK, over 20%. The inhibition at 0.01 µM on FGR, on JAK1, on JAK2, at JAK3, at KIT and on KIT(D816V) was under 20% each time. Also, the inhibition at 0.01 µM at KIT(T670I) is under 20%; at KIT(V560G) it was under 20%; on LCK, over 20%; on PDGFRα, over 20%; at PDGFRβ, under 20%; on RAF1, over 20%. Moreover, the inhibition at 0.01 µM on SRC was under 20%; at SRM, over 20%. The IC50 in test [1] (Homo sapiens, T47D, 72 h) is under 20 µM.
For `O=C(c1c(F)ccc(NS(=O)(=O)CCO)c1F)c1c[nH]c2ncc(-c3ccc(Cl)cc3)cc12` [200-149, N-[3-[5-(4-chlorophenyl)pyrrolo[2,3-b]pyridine-3-carbonyl]-2,4-difluorophenyl]-2-hydroxyethanesulfonamide], the IC50 in test [1] (Homo sapiens, T47D, 72 hours) is under 20 µM.
